Key:
Assay in all cases: relative viability (nuclei count vs DMSO), 5 days (fraction); higher = more cells survive
[1] = compound: O=C(NCCCNc1nc(Nc2cccc(NC(=O)N3CCCC3)c2)ncc1I)c1cccs1 [BX 795] + CC(=O)c1c(C)c2cnc(Nc3ccc(N4CCNCC4)cn3)nc2n(C2CCCC2)c1=O [Palbociclib] (partner 0.5 µM)
Procedure, shortened: (§1)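 Lung cancer cell lines, seeded in 1536-well plates, were treated the following day by pin tool with a single drug or with five library-drug doses (not always all listed) in √10 steps on top of a fixed anchor-drug dose. Cells were fixed and nuclei stained in one step after 5 days, and nuclei were counted. Relative viability is the nuclei count for treated wells divided by that for vehicle wells, reported as medians of duplicate plates.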

[2] = compound: O=C(NCCCNc1nc(Nc2cccc(NC(=O)N3CCCC3)c2)ncc1I)c1cccs1 [BX 795] + CC(C)C[C@H](NC(=O)[C@H](Cc1ccccc1)NC(=O)c1cnccn1)B(O)O [Bortezomib] (partner 0.002 µM)
Procedure, shortened: as §1

[3] = compound: O=C(NCCCNc1nc(Nc2cccc(NC(=O)N3CCCC3)c2)ncc1I)c1cccs1 [BX 795] + CC1(C)CCC(c2ccc(Cl)cc2)=C(CN2CCN(c3ccc(C(=O)NS(=O)(=O)c4ccc(N[C@H](CCN5CCOCC5)CSc5ccccc5)c(S(=O)(=O)C(F)(F)F)c4)cc3)CC2)C1 [Navitoclax] (partner 0.5 µM)
Procedure, shortened: as §1

[4] = compound: O=C(NCCCNc1nc(Nc2cccc(NC(=O)N3CCCC3)c2)ncc1I)c1cccs1 [BX 795] + COc1cccc2cc(-c3nc([C@H]4CC[C@H](C(=O)O)CC4)n4ncnc(N)c34)[nH]c12 [OSI-027] (partner 0.5 µM)
Procedure, shortened: as §1

[5] = compound: O=C(NCCCNc1nc(Nc2cccc(NC(=O)N3CCCC3)c2)ncc1I)c1cccs1 [BX 795] + Nc1ncn([C@H]2C[C@H](O)[C@@H](CO)O2)c(=O)n1 [Decitabine] (partner 2 µM)
Procedure, shortened: as §1

Cell Line | relative viability ([1]; first compound 0.04 µM) | relative viability ([1]; first compound 0.1265 µM) | relative viability ([1]; first compound 0.4 µM) | relative viability ([1]; first compound 1.265 µM) | relative viability ([2]; first compound 0.04 µM) | relative viability ([2]; first compound 0.1265 µM) | relative viability ([2]; first compound 0.4 µM) | relative viability ([2]; first compound 1.265 µM) | relative viability ([3]; first compound 0.04 µM) | relative viability ([3]; first compound 0.1265 µM) | relative viability ([3]; first compound 0.4 µM) | relative viability ([3]; first compound 1.265 µM) | relative viability ([4]; first compound 0.04 µM) | relative viability ([4]; first compound 0.1265 µM) | relative viability ([4]; first compound 0.4 µM) | relative viability ([4]; first compound 1.265 µM) | relative viability ([5]; first compound 0.04 µM) | relative viability ([5]; first compound 0.1265 µM) | relative viability ([5]; first compound 0.4 µM) | relative viability ([5]; first compound 1.265 µM)
NCI-H1651 | 0.566 | 0.534 | 0.538 | 0.541 | 0.925 | 0.961 | 1.04 | 0.971 | 1 | 1.13 | 1.04 | 0.932 | 0.588 | 0.716 | 0.576 | 0.765 | 0.801 | 0.624 | 0.6 | 0.645
NCI-H1666 | 0.536 | 0.641 | 0.7 | 0.657 | 0.653 | 0.806 | 0.913 | 0.688 | 1.12 | 1.31 | 1.14 | 0.717 | 0.859 | 0.876 | 0.993 | 0.803 | 0.925 | 0.69 | 0.785 | 0.686
NCI-H1734 | 0.404 | 0.377 | 0.35 | 0.354 | 0.965 | 1.03 | 0.914 | 0.545 | 0.882 | 0.945 | 0.828 | 0.618 | 0.536 | 0.592 | 0.555 | 0.419 | 0.582 | 0.613 | 0.545 | 0.504
NCI-H1755 | 0.493 | 0.43 | 0.458 | 0.441 | 1.01 | 0.963 | 1.05 | 0.758 | 1.07 | 0.978 | 1.04 | 0.671 | 0.711 | 0.74 | 0.794 | 0.552 | 0.796 | 0.645 | 0.885 | 0.704
NCI-H1792 | 0.724 | 0.633 | 0.643 | 0.613 | 0.963 | 1.08 | 1.12 | 0.954 | 0.624 | 0.556 | 0.708 | 0.568 | 0.765 | 0.728 | 0.702 | 0.53 | 0.546 | – | 0.588 | 0.408
NCI-H1915 | 0.63 | 0.501 | 0.637 | 0.485 | 1.07 | 1.01 | 0.974 | 0.953 | 0.824 | 0.782 | 0.766 | 0.691 | 0.7 | 0.6 | 0.663 | 0.469 | 0.292 | 0.225 | 0.309 | 0.245
NCI-H1975 | 0.758 | 0.712 | 0.509 | 0.526 | 0.332 | 0.414 | 0.392 | 0.249 | 1.19 | 1.24 | 1.16 | 0.985 | 0.83 | 0.7 | 0.574 | 0.424 | 0.434 | 0.472 | 0.35 | 0.359
NCI-H1993 | 0.67 | 0.744 | 0.671 | 0.642 | 1.15 | 1.26 | 1.05 | 1.02 | 0.868 | 0.857 | 0.846 | 0.614 | 0.528 | 0.537 | 0.531 | 0.532 | 0.65 | 0.602 | 0.719 | 0.652
NCI-H2009 | 0.24 | 0.233 | 0.185 | 0.167 | 0.97 | 0.924 | 0.996 | 0.804 | 1.23 | 1.1 | 1.19 | 0.853 | 0.612 | 0.595 | 0.604 | 0.386 | 0.391 | 0.39 | 0.4 | 0.374
NCI-H2023 | 0.4 | 0.366 | 0.358 | 0.17 | 0.932 | 0.965 | 0.433 | 0.675 | 0.933 | 1.08 | 0.36 | 0.645 | 0.272 | 0.398 | 0.173 | 0.182 | 0.241 | 0.238 | 0.21 | 0.199
NCI-H2085 | 0.466 | 0.465 | 0.515 | 0.51 | 1.04 | 0.98 | 1.02 | 0.999 | 1.12 | 1.17 | 1.27 | 1.01 | 0.732 | 0.817 | 0.73 | 0.648 | 0.683 | 0.501 | 0.737 | 0.575
NCI-H2087 | 0.219 | 0.248 | 0.322 | 0.209 | 0.952 | 0.898 | 1.18 | 0.719 | 0.901 | 1 | 1.25 | 0.801 | 0.793 | 0.82 | 0.848 | 0.502 | 0.387 | 0.347 | 0.369 | 0.143
NCI-H2126 | 0.387 | 0.329 | 0.35 | 0.34 | 1.08 | 1.07 | 1.21 | 1.07 | 0.795 | 0.826 | 0.965 | 0.787 | 0.837 | 0.677 | 0.818 | 0.699 | 0.626 | 0.553 | 0.747 | 0.593
NCI-H2347 | 0.496 | 0.417 | 0.523 | 0.496 | 1.19 | 1.05 | 1.23 | 0.934 | 1.02 | 0.743 | 1.05 | 0.76 | 0.503 | 0.541 | 0.616 | 0.352 | 0.65 | 0.653 | 0.69 | 0.636
NCI-H2405 | 0.535 | 0.537 | 0.384 | 0.566 | 0.965 | 1.03 | 0.91 | 0.941 | 0.827 | 0.848 | 0.588 | 0.7 | 0.75 | 0.65 | 0.66 | 0.559 | 0.869 | 0.742 | 0.693 | 0.722
NCI-H3122 | 0.182 | 0.221 | 0.208 | 0.226 | 1.02 | 1.04 | 1.04 | 0.986 | 1.03 | 1 | 1.04 | 1.05 | 0.948 | 1.06 | 0.947 | 0.733 | 0.415 | 0.428 | 0.477 | 0.532
